The record followed here is US20240262842A1, “SMALL MOLECULE INHIBITORS OF KRAS G12C MUTANT” (Merck Sharp & Dohme LLC, priority 2021, published 2024).

Where two headings read alike, the source gives them in different places.

Assay [1] deals with T1, interaction between GMPPNP-bound recombinant K-Ras4B G12C mutant protein and cRAF RAS-binding domain (cRAF-RBD) (Homo sapiens, UniProt P01116, G12C).
T1 construct: His-tag (N)
Briefly: Inhibitory activity on interaction between KRAS G12C and cRAF (Alpha technology). Put shortly:
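His-tagged K-Ras4B G12C (aa 1-169), GMPPNP-loaded, preincubated with compound 1 h at 25° C in pH 7.5 Tris buffer with MgCl2, TCEP, Tween 20. cRAF-RBD (aa 50-132) and Alpha reagents then added for 1.5 h; Alpha signal normalised to DMSO (0%) and GDP-bound KRAS (100%); IC50 from dose titration.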

The subject of another assay is MIA PaCa-2 cells. Briefly: Growth inhibition activity on KRAS-G12C mutant cell line (CellTiter-Glo 3D). It counts as cell-based, human. The note with it: MIA PaCa-2, 3-day culture with compound. Put shortly: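 MIA PaCa-2 cells in RPMI1640 with 10% FBS, U-bottom wells, cultured 1 day before compound (0.2% DMSO final), then 3 days at 37 °C, 5% CO2. Viability by CellTiter-Glo 3D luminescence; growth inhibition versus untreated wells gives IC50 (nM).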

Where [2] appears, read: GMPPNP-bound KRAS G12C incubated with compound 25° C. 1 hour, Table 2-1, read-out: IC50.
Where [3] appears, read: Homo sapiens, MIA PaCa-2, 72 h, Table 3-1.
[4] abbreviates: IC50, GMPPNP-bound KRAS G12C incubated with compound 25° C. 1 hour, Table 2.
The mark [5] stands for this setting: Homo sapiens, MIA PaCa-2, 72 h, Table 3.

Broadly, the IC50 is the concentration that gives 50% inhibition.

T1 sequence (P01116 with tags, fused parts or gaps isoform P01116-2 G12C): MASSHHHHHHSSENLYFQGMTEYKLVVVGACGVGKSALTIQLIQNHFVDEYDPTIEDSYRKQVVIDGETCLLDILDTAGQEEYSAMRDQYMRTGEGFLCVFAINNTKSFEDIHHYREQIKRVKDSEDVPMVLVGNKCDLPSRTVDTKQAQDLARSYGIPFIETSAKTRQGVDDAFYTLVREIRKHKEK

`CO[C@H]1CC[C@H](NC/C=C/C(=O)Nc2c(F)cc(C(=O)c3cc4c5c(cccn35)-c3c(C(F)(F)F)cc5c(ncn5C)c3N(C)CC4)cc2F)CC1` [Example 74, (E)-N-(4-(9,12-dimethyl-7-(trifluoromethyl)-9,12,13,14-tetrahydro-imidazo[4″,5″:5′,6′]benzo-[1′,2′:2,3]azocino[4,5,6-hi]indolizine-2-carbonyl)-2,6-difluorophenyl)-4-(((1r,4r)-4-methoxycyclo-hexyl)amino)but-2-en-amide]: the IC50 came out at 33.3 nM in assay [1] (setting [2]) and 8.22 nM in the assay on MIA PaCa-2 cells (setting [3]).
For `CN1CCc2cc(C(=O)c3cc(F)c(NC(=O)/C=C/CN4CCCC4)c(F)c3)n3cccc(c23)-c2c(C(F)(F)F)cc3c(ncn3C)c21` [Example 226, (E)-N-(4-(9,12-dimethyl-7-(trifluoromethyl)-9,12,13,14-tetrahydro-imidazo[4″,5″:5′,6′]benzo-[1′,2′:2,3]azocino[4,5,6-hi]indolizine-2-carbonyl)-2,6-difluorophenyl)-4-(pyrrolidin-1-yl)but-2-enamide], in that order: 63.3 nM and 13.5 nM.
With `Cn1cnc2c3c(c(C(F)(F)F)cc21)-c1cccn2c(C(=O)c4cc(F)c(NC(=O)/C=C/CN5CC6COC(C6)C5)c(F)c4)cc(c12)CCO3` (stereo not shown) [Example 228, (E)-4-(6-oxa-3-azabicyclo-[3.2.1]octan-3-yl)-N-(2,6-difluoro-4-(9-methyl-7-(trifluoromethyl)-13,14-dihydro-9H-imidazo-[4″,5″:5′,6′]benzo[1′,2′: 2,3]oxocino[4,5,6-hi]-indolizine-2-carbonyl)-phenyl)but-2-enamide], the IC50 worked out at 32.5 nM in assay [1] (setting [2]) and 35.8 nM in the assay on MIA PaCa-2 cells (setting [3]).
Turning to `Cc1nc2c3c(c(C(F)(F)F)cc2n1C)-c1cccc2c(C(=O)c4cc(F)c(NC(=O)/C=C/CNC(C)(C)CF)c(F)c4)cn(c12)CCN3C` [Example 82, (E)-N-(2,6-difluoro-4-(8,9,11-trimethyl-6-(trifluoromethyl)-8,11,12,13-tetrahydro-imidazo[4″,5″:5′,6′]benzo-[1′,2′:5,6][1,4]diazocino-[7,8,1-hi]indole-2-carbon-yl)phenyl)-4-((1-fluoro-2-methylpropan-2-yl)-amino)but-2-enamide], the IC50 was 24.9 nM in assay [1] (IC50, GMPPNP-bound KRAS G12C incubated with compound 25° C. 1 hour, Table 2-1) and 29.9 nM with MIA PaCa-2 cells (setting [3]).
As for `Cc1nc2c3c(c(C(F)(F)F)cc2n1C)-c1cccn2c(C(=O)c4cc(F)c(NC(=O)/C=C/CNC5(C)COC5)c(F)c4)cc(c12)CCO3` (single isomer, unassigned) [Example 31-1, (E)-N-(4-(9,10-dimethyl-7-(trifluoromethyl)-13,14-dihydro-9H-imidazo[4″,5″:5′,6′]benzo[1′,2′:2,3]oxocino[4,5,6-hi]indolizine-2-carbonyl)-2,6-difluorophenyl)-4-((3-methyloxetan-3-yl)amino)but-2-enamide], the IC50 in assay [1] (GMPPNP-bound KRAS G12C incubated with compound 25° C. 1 hour, Table 2, read-out: IC50) stood at 11 nM; in the assay on MIA PaCa-2 cells (Table 3), 7 nM.
On to `CO[C@H]1CC[C@H](NC/C=C/C(=O)Nc2c(F)cc(C(=O)c3cn4c5c(cccc35)-c3c(C)cc5c(nc(C)n5C)c3OC4)cc2F)CC1` [Example 16, (E)-N-(2,6-difluoro-4-(2,3,5-trimethyl-3H,12H-imidazo[4″,5″.3′,4′]benzo[1′,2:6,7][1,3]oxazepino[5,4,3-hi]indole-9-carbonyl)phenyl)-4-(((1r,4r)-4-methoxycyclohexyl)amino)but-2-enamide], for which the concentration for half-maximal inhibition (IC50) in assay [1] (setting [4]) turned out to be 100 nM; with MIA PaCa-2 cells (setting [5]), 56 nM.
`Cn1cnc2c3c(c(C(F)(F)F)cc21)-c1cccn2c(C(=O)c4cc(F)c(NC(=O)/C=C/CNC56CCC(CC5)OC6)c(F)c4)cc(c12)CCO3` [Example 125]: the IC50 in assay [1] (setting [2]) was 3.75 nM; with MIA PaCa-2 cells (setting [3]), 9.06 nM.
For the compound `CO[C@H]1CC[C@H](NC/C=C/C(=O)Nc2c(F)cc(C(=O)c3cn4c5c(cccc35)-c3c(C(F)(F)F)cc5c(nc(C)n5C)c3CCC4)cc2F)CC1` [Example 28, (E)-N-(4-(8,9-dimethyl-6-(trifluoromethyl)-8,11,12,13-tetrahydroimidazo[4″,5″:3′,4′]benzo[1′,2:4,5]azocino[3,2,1-hi]indole-2-carbonyl)-2,6-difluorophenyl)-4-(((1r,4r)-4-methoxycyclohexyl)amino)but-2-enamide], the half-inhibitory concentration (IC50) in assay [1] (setting [4]) came out at 53 nM; in the assay on MIA PaCa-2 cells (setting [5]) it was 17 nM.
Turning to `CN1CCc2cc(C(=O)c3cc(F)c(NC(=O)C=CCNC4COCC4O)c(F)c3)n3cccc(c23)-c2c(C(F)(F)F)cc3c(ncn3C)c21` [Example 138, (E)-N-(4-(9,12-dimethyl-7-(trifluoromethyl)-9,12,13,14-tetrahydro-imidazo[4″,5″:5′,6′]benzo-[1′,2′:2,3]azocino[4,5,6-hi]indolizine-2-carbonyl)-2,6-difluorophenyl)-4-(((3R,4S)-4-hydroxytetra-hydrofuran-3-yl)amino)-but-2-enamide], the IC50 in assay [1] (setting [2]) came out at 47.2 nM; with MIA PaCa-2 cells (setting [3]), 30.8 nM.
For `CO[C@H]1CC[C@H](NC/C=C/C(=O)Nc2c(F)cc(C(=O)c3cn4c5c(cccc35)-c3c(C)cc5c(nc(C)n5C)c3OCC(F)(F)C4)cc2F)CC1` [Example 26, (E)-N-(4-(13,13-difluoro-6,8,9-trimethyl-13,14-dihydro-8H,12H-imidazo[4″,5″:3′,4′]benzol[1′,2′:8,9][1,5]oxazonino[7,6,5-hi]indole-2-carbonyl)-2,6-difluorophenyl)-4-(((1r,4r)-4-methoxycyclohexyl)amino)but-2-enamide], the figures for the concentration for half-maximal inhibition (IC50) (in assay [1] (setting [4]); in the assay on MIA PaCa-2 cells (setting [5])) were 100 nM and 130 nM, respectively.
Take `COc1cccc2c1-c1cccc3c(C(=O)c4cc(F)c(NC(=O)/C=C/CN[C@H]5CC[C@H](OC)CC5)c(F)c4)cn(c13)CCO2` [Example 10, (E)-N-(2,6-difluoro-4-(10-methoxy-4,5-dihydrobenzo[7,8][1,4]oxazocino[6,5,4-hi]indole-1-carbonyl)phenyl)-4-(((1,4r)-4-methoxycyclohexyl)amino)but-2-enamide]: the results for the IC50 (in assay [1] (setting [4]); in the assay with MIA PaCa-2 cells (setting [5])) were 150 nM and 230 nM, respectively.
On to `CO[C@H]1CC[C@H](NC/C=C/C(=O)Nc2c(F)cc(C(=O)c3cn4c5c(cccc35)-c3c(C)cc5c(nc(C)n5C)c3OCC4)cc2F)CC1` (single isomer, unassigned) [Example 14-1, (E)-N-(2,6-difluoro-4-(6,8,9-trimethyl-12,13-dihydro-8H-imidazo[4″,5″:3′,4′]benzo[1′,2′:7,8][1,4]oxazocino[6,5,4-hi]indole-2-carbonyl)phenyl)-4-(((11,4r)-4-methoxycyclohexyl)amino)but-2-enamide], for which the half-inhibitory concentration (IC50) in assay [1] (setting [4]) was 9 nM; in the assay on MIA PaCa-2 cells (Table 3) it was 17 nM.
Turning to `Cc1c2cc(C(F)(F)F)c3c(c2nn1C)N(C)CCc1cc(C(=O)c2cc(F)c(NC(=O)/C=C/CNC4(C)COC4)c(F)c2)n2cccc-3c12` [Example 146, (E)-N-(2,6-difluoro-4-(9,10,12-trimethyl-7-(trifluoromethyl)-10,12,13,14-tetrahydroindolizino[8′,1′:4,5,6]azocino[3,2-g]indazole-2-carbonyl)phenyl)-4-((3-methyloxetan-3-yl)amino)but-2-enamide], the results for the IC50 (in assay [1] (setting [2]); in the assay on MIA PaCa-2 cells (setting [3])) were 20.4 nM and 19.6 nM, respectively.
In the case of `COCc1nc2c3c(c(C)cc2n1C)-c1cccn2c(C(=O)c4cc(F)c(NC(=O)/C=C/CN[C@H]5CCOC5)c(F)c4)cc(c12)CCN3C` (single isomer, unassigned) [Example 106], the IC50 worked out at 18 nM in assay [1] (setting [2]) and 21.9 nM in the assay with MIA PaCa-2 cells (setting [3]).
